In patent publication US8383582B2, “Inhibitor against forming biofilm comprising κ-casein macropeptide” (Industry Foundation of Chonnam National University, priority 2010, dated 2013):
Several values for one entry are separate records, joined by “and”; a condition that tells them apart may be missing. Identical values can stand only once.

Assays:
[1] = tested on: L. monocytogenes Scott A biofilm cells; experiment: Two-dimensional gel electrophoresis / LC-MS/MS of biofilm cell protein extracts; assay type: cell-based, Listeria monocytogenes
Method: This biofilm formation protocol was adapted from that used for the microtiter plate assay in this invention, to obtain a sufficient quantity of biofilm cells for two-dimensional gel electrophoresis (2-DE). Biofilms were prepared by using a slight modification of a previously described method (Ren et al., 2004). L. monocytogenes was grown in TSBYE overnight, and a 2.5 ml overnight culture was washed twice with PBS. Then, the cells were inoculated into a 250-ml shake flask containing 100 ml fresh MWB with or without the effective concentration of CMP on 10 g sterilized glass wool (Pyrex fiber glass; Corning, N.Y., USA). The cells were incubated with shaking (250 rpm in a shaking incubator; Vision Scientific Co., Ltd., Korea) at 30° C. to form a biofilm on the glass wool. After 24 h inoculation, the glass wool was retrieved from the culture, and quickly and gently washed twice in 100 ml of 0.85% sodium chloride buffer (within 30 s) at 4° C. The biofilm cells were removed from the glass wool by sonication in 200 ml of 0.85% sodium chloride buffer at 4° C. for 2 min. The buffer was then centrifuged (8,000×g in a VS-21S MT centrifuge; Vision Scientific Co., Ltd.) for 10 min at 4° C. to precipitate the biofilm cells. These cells were washed twice by centrifugation (8,000×g, 10 min, 4° C.) with 0.85% sodium chloride buffer; the cell pellets were flash-frozen in liquid nitrogen. While sonicating, suspended biofilm cells with an optical density at 600 nm of 2 were harvested by centrifugation (8,000×g) at room temperature for 10 min in an Eppendorf tube. The cell pellets were then flash-frozen in liquid nitrogen and kept at −80° C. until protein extraction.
The biofilm cells harvested from the glass wool were suspended in the same lysis buffer (TE buffer; 40 mM Tris, 1 mM EDTA, pH 8.0) and lysed by using Ultraschallprozessor UP200S (amplification 70, 0.5 cycle; Dr. Hielscher GmbH) 20 times for 30 s on ice. Following sonication, the unlysed cells, cell debris, and glass fibers were removed by centrifugation (8,000×g, 4° C.), and the supernatant fluids were recovered.
Protein samples were precipitated by using the phenol protocol of Hanna et al. (2000). The protein concentration was determined by using the modified Bradford assay method (Ramagli, 1999). The protein samples were stored at −80° C. until proteomic analysis.
The method described by Kim et al. (2006) with slight modifications was used for 2-DE. In the first dimension of isoelectric focusing (IEF), precast immobilized pH gradient (IPG) strips, with a nonlinear gradient from pH 3 to 10 (Bio-Rad Laboratories, Richmond, Calif., USA), were rehydrated for 12-18 h with 500 μg of protein in 300 μl of rehydration buffer (8 M urea, 2% CHAPS, 50 mM DTT, 10% isopropanol, 5% glycerol, 0.002% bromophenol blue, 0.2% ampholytes, water). In accordance with the manufacturer's instructions, focusing was performed by using a Protean IEF cell system (Bio-Rad Laboratories) at 20° C. under 60,000 Vh. After IEF, the strips were incubated for 10 min in equilibration buffer I (6 M urea, 2% SDS, 20% glycerol, 130 mM DTT, 0.375 M Tris-HCl [pH 8.8]), followed by another 10 min in equilibration buffer II (6 M urea, 2% SDS, 20% glycerol, 135 mM iodoacetamide, 0.375 M Tris-HCl [pH 8.8]). After equilibration, the strips were transferred to 12.5% sodium dodecyl sulfate (SDS)-polyacrylamide gels (20×22 cm) for running in the second dimension.
The proteins were separated by using a Protean II xi system (Bio-Rad Laboratories) with 20 mA per gel at 4° C. The protein spots were visualized by blue-silver staining (Candiano et al., 2004). The stained gels were then scanned with a densitometric scanner (UTA 2100XL; UMAX, Dallas, Tex., USA), and the spots were analyzed by using the PDQuest software (Bio-Rad Laboratories) in accordance with the manufacturer's instructions. Four gels resulting from two independent experiments were obtained, and two gels of good quality were used for analysis. […]

[2] = tested on: L. monocytogenes 3990 and 18; experiment: Flow chamber biofilm assay (glass capillary tubes, continuous flow); assay type: cell-based, Listeria monocytogenes; conditions: 0.4 mg/ml CMP
Method: Under continuous flow conditions, biofilms were grown in glass capillary tubes by using a slight modification of the previously described method (Purevdorj et al., 2002). The flow chambers, with individual channel dimensions of 3 mm×3 mm×50 mm (Stovall Life Sciences, Inc., Greensboro, N.C., USA), were inoculated with 1 ml (˜10^9 CFU/ml) of the overnight cultures of L. monocytogenes grown in TSBYE. The inoculum was injected to fill the inside of the glass tubes by using a syringe. The tubing upstream of the glass tube was clamped, and the system allowed standing without flow for 30 min at room temperature. After inoculation, the capillary tubes were mounted on a standard microscope slide. The system was switched to continuous culture mode by delivering MWB to the home-made carboy with a flow rate of 0.1 ml/min at 30° C. […] The biofilms developed in the flow chambers were monitored by using transmitted light and 10× objective lenses with an Olympus CH2 microscope (Olympus, Tokyo, Japan).

L. monocytogenes Scott A = experiment: Nematode Caenorhabditis elegans killing assay; assay type: in vivo
Method: Caenorhabditis elegans killing assay were performed as initially described by Tenor et al. (2004) with modification. Briefly, L. monocytogenes Scott A was grown in 10 ml of TSBYE culture for overnight. Culture samples (each, 10 μl) were then spread on NGM agar plates (Brenner, 1974; diameter of each, 30 mm). In the present invention, instead of wild-type Bristol N2 worms, we tested killing of C. elegans glp-4 mutant worms. […] (Mylonakis et al., 2002). For each strain, healthy 12 nematodes in L4 stage were transferred from NGM plates seeded with Escherichia coli OP50 to the plates seeded with L. monocytogenes Scott A in the absence or presence of 0.4 mg/ml of CMP and incubated at 25° C. The number of living worms per plate was determined at various time points for 15 days with a light microscopy (Olympus CH30, Tokyo, Japan). […] Each experimental condition was tested in duplicate or triplicate. In analogous experiments, E. coli OP50 was used as controls.

[3] = presence of 0.4 mg/ml CMP vs absence

κ-casein macropeptide [CMP]
protein spots with increase or decrease in amounts compared to the control ([1]; 0.4 mg/ml CMP, about 320 spots visualized): two and seven spots were up- and down-regulated | FC, Fold difference in biofilm: spot 0302 enolase [1, 3]: −3.8 Fold | FC, Fold difference in biofilm: spot 2004 glutamine synthetase [1, 3]: +2.4 Fold | FC, Fold difference in biofilm: spot 4405 6-phosphofructokinase [1, 3]: −2.8 Fold | FC, Fold difference in biofilm: spot 5104 hypothetical protein Smal_0271 [1, 3]: ∇ | FC, Fold difference in biofilm: spot 5105 conserved hypothetical protein [1, 3]: −2.0 Fold | FC, Fold difference in biofilm: spot 5206 Gap [1, 3]: +2.9 Fold | FC, Fold difference in biofilm: spot 5207 hypothetical protein Smal_0271 [1, 3]: −2.4 Fold | FC, Fold difference in biofilm: spot 6103 glutamine synthetase [1, 3]: −2.0 Fold | FC, Fold difference in biofilm: spot 7202 phosphoglycerate mutase 1 family [1, 3]: −3.2 Fold | microcolonies or aggregates seen ([2]; same incubation times as control (12-18 h)): very few microcolonies or aggregates | biofilm biomass compared to control ([2]; strains 3990 and 18, 24 h, glass capillary tubes, continuous flow): decreased biomass | worms survived (L. monocytogenes Scott A; C. elegans glp-4 on lawn of L. monocytogenes Scott A, agar medium with CMP 0.4 mg/ml, 8 days, 25° C., 37.5% without CMP): 54% and 50% | survival of C. elegans from the infection of L. monocytogenes (L. monocytogenes Scott A; CMP 0.4 mg/ml, 15 days): prolong the survival ability
